“Also recorded” adds a separate entry of the source.
Experiments:
HIV [1] = assay: in vitro testing for infectious particles; format: cell-based
[2] = tested on: T4 lymphocytes (CEM cell line); assay: NCI in vitro anti-HIV screen, growth inhibition of uninfected CEM cells (XTT); format: cell-based; conditions: Homo sapiens, CCRF-CEM, 144 h, read-out: IC50 (50% inhibitory concentration)
Method: (§1) The assay includes the killing of T4 lymphocytes by HIV. Pursuant to the test, small amounts of HIV are added to cells, and a complete cycle of virus reproduction is necessary to obtain the required cell killing. Agents that interact with virions, cells, or virus gene-products to interfere with viral activities will protect cells from cytolysis. The system is thus designed to detect anti-HIV activity. However, compounds that degenerate or are rapidly metabolized in the culture conditions may not show activity in this screen. All tests are compared with at least one positive (e.g., AZT-treated) control done at the same time under identical conditions.
(§2) 1. The candidate agent is dissolved in dimethyl sulfoxide (unless otherwise instructed), then diluted 1:200 in cell culture medium. Further dilutions (half-log10) are prepared before adding to 96-well microtiter plates.
(§3) 2. T4 lymphocytes (CEM cell line) are exposed to HIV at a virus-to-cell ratio of approximately 0.05 and are plated along with non-infected control cells into drug-containing wells or wells with medium alone.
(§4) 3. Cultures are incubated at 37° in a 5% carbon dioxide atmosphere for 6 days.
(§5) 4. The tetrazolium salt, XTT, is added to all wells, and cultures are incubated to allow formazan color development by viable cells.
(§6) 5. […] are analyzed spectrophotometrically to quantitate formazan production and, in addition, are viewed microscopically for detection of viable cells and confirmation of protective activity.
(§7) 6. Drug-treated virus-infected cells are compared with drug-treated non-infected cells and with other appropriate controls (untreated infected and untreated non-infected cells, drug-containing wells without cells, etc.) on the same plate.
(§8) 7. Data are reviewed in comparison with other tests performed at the same time, and a determination about activity is made.
Survival values of this parameter less then 50% are considered acceptable in the current protocol.

HIV [3] = assay: NCI in vitro anti-HIV screen (XTT soluble-formazan assay, protection of HIV-infected CEM cells); format: cell-based; conditions: for anti-HIV effect (statement): NCI anti-HIV screen, in vitro, CEM cells
Text: as §1, with “The National Cancer Institute's procedure for testing for agents active against Human Immunodeficiency Virus (HIV) (Weislow, O. W. et al, "New soluble-formazan assay for HIV-1 cytopathic effects: application to high-flux screening of synthetic and natural products for AIDS-antiviral activity," J. Natl. Cancer Inst., 81, 577-586, 1989) is designed to detect agents acting at any stage of the virus reproductive cycle. The assay” for “The assay”
as §2, §3, §4, §5, §6, §7, §8
Approximate values for 50% effective concentration (EC50) (protection in infected cells), 50% inhibitory concentration (IC50) and the therapeutic index (IC50 /EC50) have been calculated for each test and are provided in the tables of each Example.
Examples 1, 6 and 8 compounds, respectively, against the measured test values expressed as a percentage of the uninfected, untreated control values. The solid line depicts the percentage of surviving HIV-infected cells treated with sample (at the indicated concentration) relative to uninfected, untreated controls. The solid line expresses the in vitro anti-HIV activity of the compound of the tested compound. The dashed line depicts the percentage of surviving uninfected cells treated with the compound of the Example relative to the same uninfected, untreated controls. The dashed line expresses the in vitro growth inhibitory properties of the compound of the Example. The viral cytopathic effect of a compound of each Example is indicated by a combination of dashes and dots. […] Survival values of this parameter less then 50% are considered acceptable in the current protocol.

HIV-1 p24 = assay: p24 antigen-capture assay; format: cell-based; conditions: in vitro
Method: (§9) Activity was also examined by determination of p24 and reverse transcriptase concentrations.
To determine p24, a p24 antigen-capture assay was used. Culture fluids harvested from drug test plates or other sources were diluted 1:100 in 10% triton X-100 and stored frozen at -70° C. 200 μL aliquots of the triton treated samples were added in duplicate to microtiter wells previously coated with rabbit polyclonal anti-HIV-1 p24 serum and incubated at room temperature overnight. After washing and blotting, 100 μL of biotinylated polyclonal anti-HIV p-24 was added to each of the appropriate wells, and the plates were re-incubated at 37° C. for 60 minutes. A solution of streptavidin-horseradish peroxidase was added after additional washing and blotting. The contents of each plate were mixed and reincubated for 15 minutes at room temperature and, after washing and blotting, the o-phenylenediamine dihydrochloride substrate was added in 100 μL aliquots. Color was allowed to develop in the dark room at room temperature for 30 minutes, and the reaction was halted by the addition of 4 N H2 SO4. Optical density was measured at 490 nm, and the concentration of p24 was determined by comparison with a standard curve of known concentrations of p24. Eislow, O., et al., J. Nat'l Cancer Inst., 81 (8):577-86 (1989).

reverse transcriptase = reverse transcriptase assay of cell-free supernatant; format: cell-based, HIV; conditions: in vitro
Method: as §9
Reverse transcriptase assays were performed according to the method of Hoffman et al, Virology, 147, 326-335 (1985), with minor modifications. Briefly, 15 µl of cell-free supernatant was mixed with 10 μl of RT reaction buffer. The total 25 μl reaction mixture consisted of 2.5 μCi of tritated thymidine triphosphate (TTP) (ICN, 80 Ci/mmol), poly rA (50 ng/ml):oligo dT (10 ng/ml) template:primer (Pharmacia), 10 mM Tris, pH 7.6, 8 mM magnesium chloride, 10 mM dithiothreitol (DTT), and, in the standard reaction, 0.5% Triton X-100. Assays were performed in the absence of added EGTA unless indicated. When EGTA (Sigma) was added it was at a concentration of 1 mM. The reactions were incubated for 60 minutes at 37° C. The reaction volume was then spotted onto DE81 chromatography paper (Whatman), washed extensively in 5% dibasic sodium phosphate, and counted for incorporated radioactivity in a toluene-based scintillation cocktail. Assays were also performed to measure the presence of a nuclease activity associated with HIV virions. […] The HIV virion sample was added to the AMV RT reaction product and the amount of radioactivity able to bind to DE81 paper was monitored after varying times of incubation at 37° C. […]

`CC(C)CCC[C@@H](C)[C@H]1CC[C@H]2[C@@H]3CC[C@H]4C[C@@H](CCC=C(c5cc(Cl)c(O)c(C(=O)O)c5)c5cc(Cl)c(O)c(C(=O)O)c5)CC[C@]4(C)[C@H]3CC[C@]12C` [Formula IV, 1,1-di(3'-ammoniumcarboxy-5'-chloro-4'-hydroxy)phenyl-4-(3β)-cholestanyl-1-butene] was tested, and the “infectious particles (FIG. 2)” value (HIV [1]) was “indicating anti-HIV activity”, the IC50 [2] was over 310 µM and the “anti-HIV effect (statement)” value (HIV [3]) was “greatest effect on inhibiting HIV-infected cells, while having a lesser effect on uninfected cells”. The “anti-HIV effect (statement)” value (HIV [3]; listed as Cosalane) was “highly effective anti-HIV agent in vitro; also recorded: most effective compounds studied in terms of prevention of the cytopathic effect of HIV in CEM lymphocytes”, the EC50 (HIV [3]; read-out: EC50 (50% effective concentration, protection in infected cells), HIV-infected CEM cells, 6 days, XTT, approximate values, one value per run) was 6.7 µM and the “p24 (FIG. 3)” value (HIV-1 p24) was “indicating anti-HIV activity”. The “reverse transcriptase activity (FIG. 4)” value (reverse transcriptase) was “indicating anti-HIV activity”.

— patent US5439899A, “Cosalane and related compounds having activity against aids and aids-related infections” (priority 1993, dated 1995)
